Source: US7973056B2, “Triazole derivative or salt thereof” (Fujifilm Finechemicals Co., Ltd, priority 2008, dated 2011)
In brackets after ≈: the same amount, converted by molar mass.

Experiments:
Assay in all cases: Antifungal activity test (in vitro), MIC
Type in all cases: cell-based
[1] = tested on: Aspergillus fumigatus ATCC 1028; conditions: ATCC1028
Method: Minimum inhibitory concentration (MIC) of each of the compounds obtained in Examples 1 to 12 was measured for respective fungi at MOS Pharm Service, by the methods described in Antimicrobial Agents and Chemotherapy, vol. 3, pp. 40-48 (1973), Antimicrobial Agents and Chemotherapy, vol. 33, pp. 215-222 (1989) and Antimicrobial Agents and Chemotherapy, vol. 38, pp. 2362-2368 (1994). The measuring conditions are shown in the following. In this case, Voriconazol was used as a comparative compound.
Aspergillus fumigatus ATCC 1028; Cultured at 28° C. for 2 days using potato dextrose broth, and this was used as a cell suspension.
Each of the compounds of the invention was adjusted to a concentration of 1% by weight using dimethyl sulfoxide (DMSO) and a medium similar to the respective medium used in the above-mentioned fungal culture, having a final concentration of from 0.001 to 100 μg/ml, was prepared. Each of the inoculation cell suspensions prepared by the above-mentioned methods was inoculated onto this agar plate. […] In this connection, Voriconazol was used as the comparative compound C-1.

[2] = tested on: Microsporum canis ATCC 36299; conditions: ATCC36299
Method: (§1) Minimum inhibitory concentration (MIC) of each of the compounds obtained in Examples 1 to 12 was measured for respective fungi at MOS Pharm Service, by the methods described in Antimicrobial Agents and Chemotherapy, vol. 3, pp. 40-48 (1973), Antimicrobial Agents and Chemotherapy, vol. 33, pp. 215-222 (1989) and Antimicrobial Agents and Chemotherapy, vol. 38, pp. 2362-2368 (1994). The measuring conditions are shown in the following. In this case, Voriconazol was used as a comparative compound. Microsporum canis ATCC 36299; Cultured at 30° C. for 2 days using fluid Sabouraud medium, and this was used as a cell suspension. Each of the compounds of the invention was adjusted to a concentration of 1% by weight using dimethyl sulfoxide (DMSO) and a medium similar to the respective medium used in the above-mentioned fungal culture, having a final concentration of from 0.001 to 100 μg/ml, was prepared. Each of the inoculation cell suspensions prepared by the above-mentioned methods was inoculated onto this agar plate. […] In this connection, Voriconazol was used as the comparative compound C-1.

[3] = tested on: Cryptococcus neoformans ATCC 24067; conditions: ATCC24067
Method: as §1, with “Cryptococcus neoformans” for “Microsporum canis”, “24067, Pityrosporum ovale ATCC 38593;” for “36299;”, “37°” for “30°”, “day” for “days”

[4] = tested on: Pityrosporum ovale ATCC 38593; conditions: Malassezia furfur, ATCC38593
Method: as §1, with “Cryptococcus neoformans” for “Microsporum canis”, “24067, Pityrosporum ovale ATCC 38593;” for “36299;”, “37°” for “30°”, “day” for “days”

[5] = tested on: Trichophyton rubrum ATCC 10218; conditions: ATCC10218
Method: as §1, with “compound. Trichophyton rubrum” for “compound. Microsporum canis”, “ATCC 10218;” for “ATCC 36299;”, “at 28°” for “at 30°”, “for 3” for “for 2”

[6] = tested on: Aspergillus niger ATCC 8740; conditions: ATCC8740
Method: as §1, with “Aspergillus niger” for “Microsporum canis”, “8740;” for “36299;”, “28°” for “30°”, “potato dextrose broth,” for “fluid Sabouraud medium,”

Row | Structure (SMILES) | MIC [1] | MIC [2] | MIC [3] | MIC [4] | MIC [5] | MIC [6]
1 | C[C@@H](N1CCC(c2ccccn2)CC1)[C@](O)(Cn1cncn1)c1ccc(F)cc1F [I-1, (2R,3R)-2-(2,4-difluorophenyl)-3-(4-pyridin-2-ylpiperidin-1-yl)-1-(1,2,4-triazol-1-yl)butan-2-ol] | 10 µg/mL (≈ 24.2 µM) | 0.3 µg/mL (≈ 0.726 µM) | 0.1 µg/mL (≈ 0.242 µM) | 0.3 µg/mL (≈ 0.726 µM) |  | 
2 | C[C@@H](N1CC=C(c2ccccn2)CC1)[C@](O)(Cn1cncn1)c1ccc(F)cc1F [I-3, (2R,3R)-2-(2,4-difluorophenyl)-3-(3′,6′-dihydro-2,4′-bipyridin-1′(2′H)-yl)-1-(1,2,4-triazol-1-yl)butan-2-ol] | 1 µg/mL (≈ 2.43 µM) | 0.03 µg/mL (≈ 0.0729 µM) | 0.3 µg/mL (≈ 0.729 µM) | 0.003 µg/mL (≈ 0.00729 µM) | 0.3 µg/mL (≈ 0.729 µM) | 1 µg/mL (≈ 2.43 µM)
3 | C[C@@H](N1CC=C(c2ccc(Cl)cn2)CC1)[C@](O)(Cn1cncn1)c1ccc(F)cc1F [I-6, (2R,3R)-3-(5-chloro-3′,6′-dihydro-2,4′-bipyridin-1′(2′H)-yl)-2-(2,4-difluorophenyl)-1-(1,2,4-triazol-1-yl)butan-2-ol] | 1 µg/mL (≈ 2.24 µM) | 0.3 µg/mL (≈ 0.673 µM) | 0.03 µg/mL (≈ 0.0673 µM) | 0.003 µg/mL (≈ 0.00673 µM) |  | 
